Experimental data taken from patent publication US20230265116A1, “DEGRADATION OF (EGFR) BY CONJUGATION OF EGFR INHIBITORS WITH E3 LIGASE LIGAND AND METHODS OF USE” (BEIGENE, LTD., priority 2020, published 2023).

Tests used:
EGFR (HCC827 cells) = target: T1, EGFR (HCC827 cells) (Homo sapiens, UniProt P00533, DEL746-750); assay: EGFR degradation HTRF assay, HCC827 cells; format: cell-based; settings: HCC827, 16h treatment; for Dmax: maximum percentage of degradation
T1 construct: endogenous in cells; host or cells: HCC827
Procedure, shortened: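 Cells treated 16 h at 37 °C, 5% CO2 in medium with 0.2% DMSO; top final concentration 10 uM, 5-fold dilution, 8 doses. Lysates read by HTRF (665/620 nm); degradation % versus DMSO high control, DC50 from four-parameter fit, Dmax as maximal degradation.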

[1] = target: T2, EGFR L858R/T790M (H1975-clone #36, homozygous) (Homo sapiens, UniProt P00533, L858R/T790M); assay: EGFR degradation HTRF assay, H1975-clone #36 cells; format: cell-based; settings: H1975 #36, 16h treatment; for Dmax: NCI-H1975, maximum percentage of degradation
T2 construct: designed to specifically target WT EGFR but preserve the L858R/T790M copy; host or cells: H1975-clone #36
Method: H1975-clone #36(L858R/T790M). H1975 cell heterozygously (from ATCC) contains alleles of WT and L858R/T790M EGFR. H1975-clone #36(L858R/T790M) was generated by gene knockout, in which the EGFR targeting sgRNA was designed to specifically target WT EGFR but preserve the L858R/T790M copy. Followed by the gene knockout, the edited H1975 cells were seeded in 96 well plates at the concentration of 1 cell/well, cultured for about 2 weeks to allow single clones formation. The formed clones were screened by DNA sequencing for the desired edition. H1975-clone #36 was confirmed as a homozygous L858R/T790M EGFR clone.
BaF3 WT(wild type), BaF3-LTC(L858R/T790M/C797S) and BaF3-DTC(Del19/T790M/C797S) cells are treated with compounds diluted in 0.2% DMSO cell culture medium and incubate for 16h, 37° C., 5% CO2, H1975-#36, H1975-#28, H1975-#23 and HCC827 cells are treated with compounds diluted in 0.2% DMSO cell culture medium on day 2, incubate for 16h, 37° C., 5% CO2.the final concentriation of compounds in all assay is start with 10 uM, 5-fold dilution, total 8 doses were included.
After 16h treatment, add HTRF lysis buffer to each well; seal the plate and incubate 1 hour at room temperature on a plate shaker; Once the cells are lysed, 16 μL of cell lysate are transferred to a PE 384-well HTRF detection plate; 4 μL of pre-mixed HTRF antibodies are added to each well; Cover the plate with a plate sealer, spin 1000 rpm for 1 min, Incubate overnight at room temperature; Read on BMG PheraStar with HTRF protocol (337 nm-665 nm-620 nm).
The inhibition (degradation) percentage of the compound was calculated by the following equation: Inhibition percentage of Compound=100-100×(Signal-low control)/(High control-low control), wherein signal=each test compound group
High control=Cell group with added DMSO and without compound, indicating microplate readings without EGFR degradation;
Dmax is the maximum percentage of inhibition (degradation).
The IC50 (DC50) value of a compound can be obtained by fitting the following equation
Y=Bottom+(TOP−Bottom)/(1+((IC50/X)^hillslope))
Wherein, X and Y are known values, and IC50, Hillslope, Top and Bottom are the parameters obtained by fitting with software. Y is the inhibition percentage (calculated from the equation), X is the concentration of the compound; IC50 is the concentration of the compound when the 50% inhibition is reached. The smaller the IC50 value is, the stronger the inhibitory ability of the compound is. Vice versa, the higher the IC50 value is, the weaker the inhibitory ability of the compound is; Hillslope represents the slope of the fitted curve, generally around 1*; Bottom represents the minimum value of the curve obtained by data fitting, which is generally 0%±20%; Top represents the maximum value of the curve obtained by data fitting, which is generally 100%±20%. The experimental data were fitted by calculating and analyzing with Dotmatics data analysis software.

T1 sequence (P00533 with tags, fused parts or gaps DEL746-750): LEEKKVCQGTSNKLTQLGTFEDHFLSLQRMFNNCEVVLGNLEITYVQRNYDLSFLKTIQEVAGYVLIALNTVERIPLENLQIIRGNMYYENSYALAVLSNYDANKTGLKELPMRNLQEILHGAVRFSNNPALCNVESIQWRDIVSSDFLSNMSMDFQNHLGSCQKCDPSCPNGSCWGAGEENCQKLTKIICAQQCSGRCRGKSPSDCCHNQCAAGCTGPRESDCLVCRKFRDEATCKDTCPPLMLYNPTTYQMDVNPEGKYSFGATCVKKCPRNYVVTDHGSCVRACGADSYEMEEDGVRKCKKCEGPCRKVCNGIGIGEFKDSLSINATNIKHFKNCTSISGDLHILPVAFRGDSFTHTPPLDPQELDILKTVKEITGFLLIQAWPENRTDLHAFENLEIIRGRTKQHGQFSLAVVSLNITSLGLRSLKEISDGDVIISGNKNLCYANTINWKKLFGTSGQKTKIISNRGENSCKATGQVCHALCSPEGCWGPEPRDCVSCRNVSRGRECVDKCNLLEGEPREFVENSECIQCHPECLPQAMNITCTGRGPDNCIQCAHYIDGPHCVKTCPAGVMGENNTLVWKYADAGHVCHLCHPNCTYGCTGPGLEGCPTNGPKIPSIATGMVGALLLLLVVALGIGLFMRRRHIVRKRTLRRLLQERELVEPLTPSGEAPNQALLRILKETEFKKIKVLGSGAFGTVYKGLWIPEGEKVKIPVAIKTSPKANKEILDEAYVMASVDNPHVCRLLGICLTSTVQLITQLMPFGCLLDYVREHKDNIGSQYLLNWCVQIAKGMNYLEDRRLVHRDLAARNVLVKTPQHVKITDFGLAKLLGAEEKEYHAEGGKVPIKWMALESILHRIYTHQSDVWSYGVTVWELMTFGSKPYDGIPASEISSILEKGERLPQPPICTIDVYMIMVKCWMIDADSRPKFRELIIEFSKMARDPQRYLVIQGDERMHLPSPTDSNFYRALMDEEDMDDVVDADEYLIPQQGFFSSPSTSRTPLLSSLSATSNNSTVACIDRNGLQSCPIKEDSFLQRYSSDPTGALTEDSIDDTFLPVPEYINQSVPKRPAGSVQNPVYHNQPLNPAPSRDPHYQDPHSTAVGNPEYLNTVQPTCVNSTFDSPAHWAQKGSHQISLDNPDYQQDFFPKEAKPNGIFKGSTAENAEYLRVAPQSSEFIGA
T2 sequence (P00533 25-1210 T790M/L858R): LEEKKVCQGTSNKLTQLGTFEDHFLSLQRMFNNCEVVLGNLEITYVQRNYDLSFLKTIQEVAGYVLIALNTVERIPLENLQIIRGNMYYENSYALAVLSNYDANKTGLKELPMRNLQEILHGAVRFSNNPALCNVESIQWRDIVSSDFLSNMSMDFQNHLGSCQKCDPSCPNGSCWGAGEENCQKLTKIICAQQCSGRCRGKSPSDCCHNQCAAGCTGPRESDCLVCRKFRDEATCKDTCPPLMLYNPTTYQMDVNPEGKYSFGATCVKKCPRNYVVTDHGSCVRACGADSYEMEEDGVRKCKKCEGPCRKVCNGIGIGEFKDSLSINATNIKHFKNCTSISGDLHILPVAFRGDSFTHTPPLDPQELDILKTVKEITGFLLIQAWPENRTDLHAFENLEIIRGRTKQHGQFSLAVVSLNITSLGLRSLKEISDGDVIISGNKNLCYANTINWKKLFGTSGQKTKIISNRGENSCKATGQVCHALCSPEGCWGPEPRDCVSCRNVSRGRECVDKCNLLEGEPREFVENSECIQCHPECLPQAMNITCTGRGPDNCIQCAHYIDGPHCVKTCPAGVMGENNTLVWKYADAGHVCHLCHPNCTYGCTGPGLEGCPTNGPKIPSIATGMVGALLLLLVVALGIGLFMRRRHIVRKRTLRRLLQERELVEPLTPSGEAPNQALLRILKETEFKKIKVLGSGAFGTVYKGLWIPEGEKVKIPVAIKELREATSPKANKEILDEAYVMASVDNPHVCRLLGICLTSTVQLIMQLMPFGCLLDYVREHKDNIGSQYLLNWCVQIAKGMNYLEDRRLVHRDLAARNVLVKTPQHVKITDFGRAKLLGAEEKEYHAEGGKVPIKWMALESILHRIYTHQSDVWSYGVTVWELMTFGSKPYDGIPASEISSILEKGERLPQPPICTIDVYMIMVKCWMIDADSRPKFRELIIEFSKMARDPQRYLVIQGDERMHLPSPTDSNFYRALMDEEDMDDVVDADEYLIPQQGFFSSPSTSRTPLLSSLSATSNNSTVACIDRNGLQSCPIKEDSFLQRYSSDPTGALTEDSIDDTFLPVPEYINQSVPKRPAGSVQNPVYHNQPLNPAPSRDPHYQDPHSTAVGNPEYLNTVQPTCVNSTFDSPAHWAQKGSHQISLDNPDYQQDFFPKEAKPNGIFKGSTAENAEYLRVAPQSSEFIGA

COc1cc(N2CCN(CC3CCN(c4ccc(N5CCC(=O)NC5=O)c(C)c4)CC3)CC2)c(C)cc1Nc1ncc(Br)c(Nc2ccc3nccnc3c2P(C)(C)=O)n1 [Example 99, 1-(4-(4-((4-(4-((5-bromo-4-((5-(dimethylphosphoryl)quinoxalin-6-yl)amino)pyrimidin-2-yl)amino)-5-methoxy-2-methylphenyl)piperazin-1-yl)methyl)piperidin-1-yl)-2-methylphenyl)dihydropyrimidine-2,4(1H,3H)-dione]
DC50 (EGFR (HCC827 cells)): 60.1 nM
Dmax (EGFR (HCC827 cells)): 78.5%
DC50 [1]: > 10000 nM
Dmax [1]: 35.6%

COc1cc(N2CCN(C3CN(C(=O)c4cnc(C(=O)Nc5ccc(C6CCC(=O)NC6=O)cc5)cn4)C3)CC2)c(C)cc1Nc1ncc(Br)c(Nc2ccc3nccnc3c2P(C)(C)=O)n1 (stereo not drawn) [Example 100, 5-(3-(4-(4-((5-bromo-4-((5-(dimethylphosphoryl)quinoxalin-6-yl)amino)pyrimidin-2-yl)amino)-5-methoxy-2-methylphenyl)piperazin-1-yl)azetidine-1-carbonyl)-N-(4-(2,6-dioxopiperidin-3-yl)phenyl)pyrazine-2-carboxamide]
DC50 (EGFR (HCC827 cells)): 6.34 nM
Dmax (EGFR (HCC827 cells)): 76.9%
DC50 [1]: 8.7 nM
Dmax [1]: 62.6%

COc1cc(N2CCN(CCCC(=O)N[C@H](C(=O)N3C[C@H](O)C[C@H]3C(=O)N[C@@H](C)c3ccc(-c4scnc4C)cc3)C(C)(C)C)CC2)c(C)cc1Nc1ncc(Br)c(Nc2ccc3nccnc3c2P(C)(C)=O)n1 [Example 102, (2S,4R)-1-((S)-2-(4-(4-(4-((5-bromo-4-((5-(dimethylphosphoryl)quinoxalin-6-yl)amino)pyrimidin-2-yl)amino)-5-methoxy-2-methylphenyl)piperazin-1-yl)butanamido)-3,3-dimethylbutanoyl)-4-hydroxy-N—((S)-1-(4-(4-methylthiazol-5-yl)phenyl)ethyl)pyrrolidine-2-carboxamide]
DC50 (EGFR (HCC827 cells)): 70.1 nM
Dmax (EGFR (HCC827 cells)): 75.9%
DC50 [1]: 81.7 nM
Dmax [1]: 65.1%

CCc1cc(Nc2ncc(Br)c(Nc3ccc4nccnc4c3P(C)(C)=O)n2)c(OC)cc1N1CCC(N2CCN(CCOCCC(=O)N[C@H](C(=O)N3C[C@H](O)C[C@H]3C(=O)NCc3ccc(-c4scnc4C)cc3)C(C)(C)C)CC2)CC1 [Example 103, (2S,4R)-1-((S)-2-(3-(2-(4-(1-(4-((5-bromo-4-((5-(dimethylphosphoryl)quinoxalin-6-yl)amino)pyrimidin-2-yl)amino)-2-ethyl-5-methoxyphenyl)piperidin-4-yl)piperazin-1-yl)ethoxy)propanamido)-3,3-dimethylbutanoyl)-4-hydroxy-N-(4-(4-methylthiazol-5-yl)benzyl)pyrrolidine-2-carboxamide]
DC50 (EGFR (HCC827 cells)): 28.8 nM
Dmax (EGFR (HCC827 cells)): 84.2%
DC50 [1]: 43.1 nM
Dmax [1]: 79.6%

COc1cc(N2CCC(N3CCN(CCc4ccc(C5CCC(=O)NC5=O)cc4)CC3)CC2)ccc1Nc1ncc(Cl)c(Nc2ccccc2P(C)(C)=O)n1 (stereo not drawn) [Example 104, 3-(4-(2-(4-(1-(4-((5-chloro-4-((2-(dimethylphosphoryl)phenyl)amino)pyrimidin-2-yl)amino)-3-methoxyphenyl)piperidin-4-yl)piperazin-1-yl)ethyl)phenyl)piperidine-2,6-dione]
DC50 (EGFR (HCC827 cells)): 17.7 nM
Dmax (EGFR (HCC827 cells)): 83.4%
DC50 [1]: 5.89 nM
Dmax [1]: 74.7%

COc1cc(N2CCN(CC3CCN(c4ccc(C5CCC(=O)NC5=O)cc4)CC3)CC2)ccc1Nc1ncc(Cl)c(Nc2ccccc2P(C)(C)=O)n1 (stereo not drawn) [Example 105, 3-(4-(4-((4-(4-((5-chloro-4-((2-(dimethylphosphoryl)phenyl)amino)pyrimidin-2-yl)amino)-3-methoxyphenyl)piperazin-1-yl)methyl)piperidin-1-yl)phenyl)piperidine-2,6-dione]
DC50 (EGFR (HCC827 cells)): 16 nM
Dmax (EGFR (HCC827 cells)): 67.2%
DC50 [1]: 12.2 nM
Dmax [1]: 83.7%

COc1cc(N2CCC(N3CCN(CCC4CCN(c5ccc(C6CCC(=O)NC6=O)cc5)CC4)CC3)CC2)ccc1Nc1ncc(Cl)c(Nc2ccccc2P(C)(C)=O)n1 (stereo not drawn) [Example 106, 3-(4-(4-(2-(4-(1-(4-((5-chloro-4-((2-(dimethylphosphoryl)phenyl)amino)pyrimidin-2-yl)amino)-3-methoxyphenyl)piperidin-4-yl)piperazin-1-yl)ethyl)piperidin-1-yl)phenyl)piperidine-2,6-dione]
DC50 (EGFR (HCC827 cells)): 7.06 nM
Dmax (EGFR (HCC827 cells)): 63.2%
DC50 [1]: 8.32 nM
Dmax [1]: 63%

COc1cc(N2CCN(CC3CCN(c4ccc(N5CCC(=O)NC5=O)cc4)CC3)CC2)ccc1Nc1ncc(Cl)c(Nc2ccccc2P(C)(C)=O)n1 [Example 115, 1-(4-(4-((4-(4-((5-chloro-4-((2-(dimethylphosphoryl)phenyl)amino)pyrimidin-2-yl)amino)-3-methoxyphenyl)piperazin-1-yl)methyl)piperidin-1-yl)phenyl)dihydropyrimidine-2,4(1H,3H)-dione]
DC50 (EGFR (HCC827 cells)): 103 nM
Dmax (EGFR (HCC827 cells)): 83.4%
DC50 [1]: 641 nM
Dmax [1]: 74.7%

COc1cc(N2CCN(C3CN(C(=O)c4cnc(C(=O)Nc5ccc(C6CCC(=O)NC6=O)cc5)cn4)C3)CC2)ccc1Nc1ncc(Cl)c(Nc2ccccc2P(C)(C)=O)n1 (stereo not drawn) [Example 116, 5-(3-(4-(4-((5-chloro-4-((2-(dimethylphosphoryl)phenyl)amino)pyrimidin-2-yl)amino)-3-methoxyphenyl)piperazin-1-yl)azetidine-1-carbonyl)-N-(4-(2,6-dioxopiperidin-3-yl)phenyl)pyrazine-2-carboxamide]
DC50 (EGFR (HCC827 cells)): 17.9 nM
Dmax (EGFR (HCC827 cells)): 75.4%
DC50 [1]: 6.63 nM
Dmax [1]: 62%

COc1cc(N2CCC(N3CCN(C(=O)C[C@H](NC(=O)[C@@H]4C[C@@H](O)CN4C(=O)[C@@H](c4cc(C)no4)C(C)C)c4ccc(-c5scnc5C)cc4)CC3)CC2)ccc1Nc1ncc(Cl)c(Nc2ccccc2P(C)(C)=O)n1 [Example 117, (2S,4R)—N—((S)-3-(4-(1-(4-((5-chloro-4-((2-(dimethylphosphoryl)phenyl)amino)pyrimidin-2-yl)amino)-3-methoxyphenyl)piperidin-4-yl)piperazin-1-yl)-1-(4-(4-methylthiazol-5-yl)phenyl)-3-oxopropyl)-4-hydroxy-1-((R)-3-methyl-2-(3-methylisoxazol-5-yl)butanoyl)pyrrolidine-2-carboxamide]
DC50 (EGFR (HCC827 cells)): 17 nM
Dmax (EGFR (HCC827 cells)): 76.2%
DC50 [1]: 67.4 nM
Dmax [1]: 86.7%

COc1cc(N2CCC(N3CCN(CCCC4CN(c5ccc6c(c5)C(=O)N(C5CCC(=O)NC5=O)C6=O)C4)CC3)CC2)ccc1Nc1ncc(Cl)c(Nc2ccccc2P(C)(C)=O)n1 (stereo not drawn) [Example 118, 5-(3-(3-(4-(1-(4-((5-chloro-4-((2-(dimethylphosphoryl)phenyl)amino)pyrimidin-2-yl)amino)-3-methoxyphenyl)piperidin-4-yl)piperazin-1-yl)propyl)azetidin-1-yl)-2-(2,6-dioxopiperidin-3-yl)isoindoline-1,3-dione]
DC50 (EGFR (HCC827 cells)): 22.7 nM
Dmax (EGFR (HCC827 cells)): 76%
DC50 [1]: 24.7 nM
Dmax [1]: 82.4%

COc1cc(N2CCC(N3CCN(CCc4ccc(C5CCC(=O)NC5=O)cc4)CC3)CC2)ccc1Nc1ncc(Cl)c(Nc2ccccc2N(C)S(C)(=O)=O)n1 (stereo not drawn) [Example 119, N-(2-((5-chloro-2-((4-(4-(4-(4-(2,6-dioxopiperidin-3-yl)phenethyl)piperazin-1-yl)piperidin-1-yl)-2-methoxyphenyl)amino)pyrimidin-4-yl)amino)phenyl)-N-methylmethane sulfonamide]
DC50 (EGFR (HCC827 cells)): 12.8 nM
Dmax (EGFR (HCC827 cells)): 85.3%
DC50 [1]: 9.02 nM
Dmax [1]: 83.9%
